Data as given in EP1495132B1, “SYSTEMIC MARKER FOR MONITORING ANTI-INFLAMMATORY AND ANTIOXIDANT ACTIONS OF THERAPEUTIC AGENTS” (priority 2002, dated 2003).
Where “and” joins values, the source holds several entries; their conditions need not be identical. Equal entries are not always repeated.

How the values were obtained:
Human neutrophils = test: Neutrophil-dependent initiation of lipid peroxidation of endogenous plasma lipids (PMA-activated neutrophils, LC/ESI/MS/MS); type: cell-based; conditions: 50% plasma, 2 h, 37° C, 1 mM NaN3, 300 nM catalase, 100 µM methionine, 100 µM ascorbate, 10 µg/ml SOD
Method: (§1) Neutrophils (1×10^6/ml) isolated from normal and MPO-deficient individuals were incubated at 37° C in HBSS supplemented with DTPA (100 µM, pH 7.0) and fresh human plasma (50% v/v). Cells were activated by addition of phorbol myristate acetate (PMA, 200 nM) and incubated for 2 h (Complete System). The content of 9-H(P)ODE and 9-H(P)ETE formed within endogenous plasma lipids were then determined by LC/ESI/MS/MS. Where indicated, human MPO (30 nM) was added to reaction mixtures. Data represent the mean ±SD of triplicate determinations. Each bar within a cluster for a given condition represents results obtained from independent experiments performed with neutrophil preparations from a distinct donor. PMN(MPO+), neutrophils isolated from normal subjects; PMN(MPO-), neutrophils isolated from MPO-deficient subjects. • Figs. 5(A-B) are graphs showing the characterization of neutrophil-dependent initiation of lipid peroxidation of endogenous plasma lipids. Neutrophils (1×10^6/ml) isolated from normal subjects (PMN) were incubated at 37° C in HBSS supplemented with DTPA (100 µM, pH 7.0) and fresh human plasma (50% v/v). Cells were activated by addition of phorbol myristate acetate (PMA, 200 nM) and then incubated for 2 h (Complete System). The content of 9-H(P)ODE and 9-H(P)ETE formed within endogenous plasma lipids were then determined by LC/ESI/MS/MS. Additions or deletions to the Complete System were as indicated. The final concentrations of additions to the Complete System were 30 nM human MPO, 1 mM NaN3, 300 nM catalase (Cat), 300 nM heat inactivated-catalase (hiCat), 100 µM methionine (Met), 100 µM ascorbate and 10 µg/ml superoxide dismutase (SOD). […] The content of 9-H(P)ODE and 9-H(P)ETE formed within endogenous plasma lipids were then determined by LC/ESI/MS/MS. […] The contents of the indicated oxidized PC species were determined in native LDL and LDL oxidized by the MPO-H2O2-NO2 system (NO2-LDL) using LC/ESI/MS/MS. […]

[1] = tested on: oxidation products produced by myeloperoxidase and nitric oxide-derived oxidants; test: Prospective intervention study: plasma protein-bound tyrosine oxidation products at baseline and after 12 weeks of atorvastatin; type: in vivo, human
[2] = tested on: lipid levels and high-sensitivity CRP
Method: Wilcoxon rank-sum test was used to analyze the differences between measurements at baseline and 12 weeks. […] Approximate 95% confidence intervals were found using Fisher's r-to-z transform. Multiple regression analyses were performed to determine factors associated with changes in nitrotyrosine levels.
We performed a prospective, open-label study. The study cohort consisted of a consecutive sample of patients (n=35) recruited from the Preventive Cardiology Clinic at the Cleveland Clinic Foundation. Patients 21 years of age and older without clinical evidence of coronary artery disease and with LDL cholesterol (LDL-C) levels 130 mg per deciliter or greater, despite at least 6-8 weeks of therapeutic lifestyle interventions, were eligible to participate in the study. Briefly, at initial screening, a detailed medical history was obtained, a thorough physical examination was performed, and a fasting lipoprotein profile was obtained. Patients potentially eligible for the study received counseling on nutritional and exercise interventions. If after 6-8 weeks LDL-C remained above 130 mg/dL, patients were eligible for enrollment in the study. […] Fasting morning plasma samples were collected prior to initiation of therapy (baseline), and following 12 weeks of therapy. Patients with active liver disease or renal insufficiency defined as a serum creatinine level of 1.8 mg per deciliter or greater were excluded. […] All patients gave written informed consent, and the Institutional Review Board at the Cleveland Clinic Foundation approved the study protocol.
Blood samples were collected into EDTA tubes from fasting patients. Samples were centrifuged at 3500 rpm for 10 minutes at 4°C, and stored under conditions to minimize artificial oxidation (i.e., with antioxidant cocktail, under inert atmosphere). Briefly, plasma was removed and allocated into tubes containing butylated hydroxytoluene (100µM final) and diethylenetriaminepentaacetic acid (100µM final) overlaid with argon and stored at -80°C until analysis. Standard methods were used to measure lipid levels and high-sensitivity CRP.
Data are presented as mean ± SD, and significance level was set at p < 0.05. Wilcoxon rank-sum test was used to analyze the differences between NO2Tyr, diTyr, and CRP at baseline and 12 weeks, as they were not normally distributed.

[3] = tested on: oxidation products produced by myeloperoxidase and nitric oxide-derived oxidants; test: Prospective intervention study: plasma protein-bound tyrosine oxidation products at baseline and after 12 weeks of atorvastatin; type: in vivo, human; remark: listed apart in the source
Method: The population consisted of a consecutive sample of patients recruited from the Preventive Cardiology Clinic at the Cleveland Clinic Foundation from June 2001 until January 2002 who were eligible and consented to participate in the study. Patients 21 years of age and older without clinical evidence of CAD and with low-density lipoprotein cholesterol (LDL-C) levels ≥ 130mg/dL, despite at least 6-8 weeks of therapeutic lifestyle interventions, were eligible to participate in the study. Briefly at initial screening, a detailed medical history was obtained, a thorough physical examination was performed, and a fasting lipoprotein profile was obtained. Patients potentially eligible for the study received counseling on nutritional and exercise interventions. If after 6-8 weeks LDL-C remained ≥130mg/dL, patients were eligible for enrollment in the study. […] Patient with active liver disease or renal insufficiency defined as serum creatine levels of 1.8 mg per deciliter or greater were excluded. […] All patients gave written informed consent, and the Institutional Review Board at the Cleveland Clinic Foundation approved the study protocol.
Blood samples were collected into serum separator tubes (Case-control study) or EDTA tubes (Intervention study) from overnight fasted patients. Samples were centrifuged at 3500 rpm for 10 minutes, plasma/serum recovered, and aliquots stored at -80°C until analysis. Personnel blinded to clinical data performed all laboratory measurements. Lipoprotein/lipid profiles and high sensitivity C-reactive protein (CRP) measurements were performed using CDC standardized assays.
Protein-bound nitrotyrosine levels were determined by stable isotope dilution liquid chromatography-electrospray ionization tandem mass spectrometry based methods using an ion trap mass spectrometer (LCQ Deca, ThermoFinigann, San Jose, CA). […] Nitrotyrosine content in samples is expressed as the mole ratio between nitrotyrosine and the precursor amino acid tyrosine. […]

MPO = test: Example 15: plasma levels of MPO, statin therapy; type: in vivo, human; conditions: n=27
[4] = tested on: MPO-generated markers of protein and lipid oxidation; test: Example 10: MPO-generated oxidation markers and hs-CRP after 12 weeks of atorvastatin (Figs. 14, 15); type: in vivo, human; conditions: baseline vs 12 weeks of atorvastatin 10 mg PO QHS
[5] = tested on: MPO and multiple distinct oxidation products formed by MPO; test: Example 13: plasma MPO and oxidation products, ACEI therapy; type: in vivo, human; conditions: 16 weeks of lisinopril 20 mg PO QD, n=9
Method: Subjects (n=9) had plasma drawn at baseline, and then 16 weeks following therapy with lisinopril (Zestril, 20 mg PO QD). Plasma levels of MPO, protein-bound nitrotyrosine, chlorotyrosine, dityrosine, and 9-H(P)ETE and F2Isoprostantes were monitored.

[6] = tested on: MPO and multiple distinct oxidation products formed by MPO; test: Example 14: plasma MPO and oxidation products, ARB therapy; type: in vivo, human; conditions: 16 weeks of losartan 25 mg PO QD, n=16
From the text: Angiotensin receptor blocking agents are a new therapy used for treatment of hypertension. They act upon the same biochemical axis as ACEI. Accordingly, they promote clinical benefits beyond those linked to blood pressure reduction - those related to presumed anti-inflammatory and antioxidant actions. However, no means for objectively monitoring these effects have been available. We hypothesized that monitoring levels of MPO and its oxidation products might serve as a way of quantifying the anti-inflammatory and antioxidant effects of ARBs. […] These studies underscore the potential utility of MPO and its oxidation products for monitoring systemic antioxidant and anti-inflammatory effects of therapeutic interventions.

human MPO = molecular target: T1, human MPO (Homo sapiens, UniProt P05164); test: MPO-dependent initiation of lipid peroxidation of endogenous plasma lipids (isolated MPO plus glucose/glucose oxidase); type: biochemical; conditions: 30 nM MPO, G/GO, 50% plasma, 12 h, 37° C; 1 mM NaN3, 300 nM catalase, 200 nM SOD, 100 µM methionine, 100 µM ascorbate
T1 construct: from tissue; host or cells: human leukocytes, for the MPO standard of the ELISA; the lipid peroxidation text only says 'isolated'/'purified' and cites the literature
T1 sequence (P05164 279-745 limits assumed): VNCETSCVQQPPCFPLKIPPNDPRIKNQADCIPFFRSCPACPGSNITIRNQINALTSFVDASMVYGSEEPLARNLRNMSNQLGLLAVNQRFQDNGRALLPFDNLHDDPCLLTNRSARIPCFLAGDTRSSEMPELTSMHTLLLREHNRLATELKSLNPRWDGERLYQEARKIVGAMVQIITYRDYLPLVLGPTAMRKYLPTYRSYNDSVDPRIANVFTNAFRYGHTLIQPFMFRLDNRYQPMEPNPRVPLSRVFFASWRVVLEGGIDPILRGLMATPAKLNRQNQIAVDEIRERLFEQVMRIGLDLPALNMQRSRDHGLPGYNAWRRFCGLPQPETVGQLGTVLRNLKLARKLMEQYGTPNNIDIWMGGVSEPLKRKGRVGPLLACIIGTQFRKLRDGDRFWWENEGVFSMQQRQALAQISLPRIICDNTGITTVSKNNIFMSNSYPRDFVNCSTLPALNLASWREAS
T1 sequence (P05164 165-273 limits assumed): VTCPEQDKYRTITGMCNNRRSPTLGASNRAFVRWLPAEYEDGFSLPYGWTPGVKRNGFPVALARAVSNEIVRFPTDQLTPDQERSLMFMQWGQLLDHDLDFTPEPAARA
Method: as §1, with “Neutrophils (1×10^6/ml) isolated from normal subjects (PMN) were incubated at 37° C in HBSS supplemented with DTPA (100 µM, pH 7.0) and fresh human plasma (50% v/v). Cells were activated by addition of phorbol myristate acetate (PMA, 200 nM) and then incubated for 2 h (Complete System).” left out, “LC/ESI/MS/MS.” for “LC/ESI/MS/MS. Additions or deletions to the Complete System were as indicated. The final concentrations of additions to the Complete System were 30 nM human MPO, 1 mM NaN3, 300 nM catalase (Cat), 300 nM heat inactivated-catalase (hiCat), 100 µM methionine (Met), 100 µM ascorbate and 10 µg/ml superoxide dismutase (SOD).”

[7] = baseline to 12 weeks, atorvastatin 10 mg per day, n = 35
[8] = plasma protein-bound, 12 Weeks of atorvastatin 10 mg orally per day, n = 35, mean ± SD
[9] = reduction, baseline to 12 weeks, atorvastatin 10 mg per day, given unsigned
[10] = reduction, baseline to 12 weeks, atorvastatin 10 mg per day, given unsigned, not significant
[11] = 12 Weeks of atorvastatin 10 mg orally per day, n = 35, mean ± SD
[12] = n=35, LDL cholesterol ≥ 130mg/dL

O[C@H](CS)[C@H](O)CS (racemic) [dithiothreitol]
neutrophil-dependent peroxidation of endogenous plasma lipids (9-H(P)ODE and 9-H(P)ETE) (Human neutrophils): failed to attenuate

CC(C)c1c(C(=O)Nc2ccccc2)c(-c2ccccc2)c(-c2ccc(F)cc2)n1CC[C@@H](O)C[C@@H](O)CC(=O)O [Atorvastatin, atorvastatin]
Chlorotyrosine, absolute change [1, 7]: -6 µmol/mol tyrosine | Dityrosine, absolute change [1, 7]: -11 µmol/mol tyrosine | ortho-tyrosine, absolute change [1, 7]: -8 µmol/mol tyrosine | Chlorotyrosine [1, 8]: 13 ± 4 µmol/mol tyrosine | Dityrosine [1, 8]: 23 ± 8 µmol/mol tyrosine | ortho-tyrosine [1, 8]: 81 ± 40 µmol/mol tyrosine | Chlorotyrosine, % change [1, 9]: 30% | Dityrosine, % change [1, 9]: 32% | ortho-tyrosine, % change [1, 10]: 9% | Apolipoprotein B-100 [2, 11]: 96 ± 21 mg/dL | C-reactive protein [2, 11]: 0.23 ± 0.33 mg/dL and 0.23 mg/dL | Total cholesterol level [2, 11]: 190 ± 28 mg/dL | Apolipoprotein B-100, absolute change [2, 7]: -39 mg/dL | C-reactive protein, absolute change [2, 7]: -0.2 mg/dL | Total cholesterol, absolute change [2, 7]: -63 mg/dL | Triglycerides, absolute change [2, 7]: -14 mg/dL | Triglycerides ([2]; fasting, 12 Weeks of atorvastatin 10 mg orally per day, n = 35, mean ± SD): 132 ± 81 mg/dL | Apolipoprotein B-100, % change [2, 9]: 29% | Total cholesterol, % change [2, 9]: 25% | C-reactive protein, % change [2, 10]: 11% | Triglycerides, % change [2, 10]: 10% | Nitrotyrosine, absolute change [3, 7]: -4 µmol/mol tyrosine | Nitrotyrosine [3, 8]: 11 ± 5 µmol/mol tyrosine | Nitrotyrosine, % change [3, 9]: 25% | MPO (MPO; plasma, 16 weeks of Atorvastatin 10 mg PO QD): 17.3 ± 4.8 ng/mL | MPO, % change (MPO; reduction, baseline to 16 weeks of Atorvastatin 10 mg PO QD, given unsigned): 12.2% | reduction in dityrosine [4, 12]: 30% | reduction in nitrotyrosine [4, 12]: 24% | decrease in hs-CRP ([4]; n=35, failed to reach significance): 11%

NCCCC[C@H](N[C@@H](CCc1ccccc1)C(=O)O)C(=O)N1CCC[C@H]1C(=O)O [lisinopril]
Nitrotyrosine ([5]; plasma protein-bound): 10.3 µmol/mol | 9-H(P)ETE ([5]; plasma): 0.21 mmol/mol | Chlorotyrosine ([5]; plasma): 15.0 µmol/mol | Dityrosine ([5]; plasma): 24.1 µmol/mol | F2Isoprostane ([5]; plasma): 0.72 mmol/mol | MPO ([5]; plasma): 8.8 ng/mL

CCCCc1nc(Cl)c(CO)n1Cc1ccc(-c2ccccc2-c2nn[nH]n2)cc1 [losartan]
Nitrotyrosine ([6]; plasma protein-bound): 8.1 umol/mol | 9-H(P)ETE ([6]; plasma): 0.27 mmol/mol | Chlorotyrosine ([6]; plasma): 14.3 umol/mol | Dityrosine ([6]; plasma): 28.5 umol/mol | F2Isoprostane ([6]; plasma): 0.68 mmol/mol | MPO ([6]; plasma): 9.9 ng/mL

CSCC[C@H](N)C(=O)O [methionine]
neutrophil-dependent peroxidation of endogenous plasma lipids (9-H(P)ODE and 9-H(P)ETE) (Human neutrophils): failed to attenuate | MPO-dependent lipid oxidation in plasma (9-H(P)ODE and 9-H(P)ETE) (human MPO): not affected

azide
neutrophil-dependent peroxidation of endogenous plasma lipids (9-H(P)ODE and 9-H(P)ETE) (Human neutrophils): complete inhibition | MPO-dependent lipid oxidation in plasma (9-H(P)ODE and 9-H(P)ETE) (human MPO): inhibited
